Reference: US20100185419A1, “ALGORITHM FOR DESIGNING IRREVERSIBLE INHIBITORS” (Avila Therapeutics, Inc., priority 2008, published 2010)
Read-outs that look alike come from different tables or passages of the source. Blank lines part the entries; values can stand above or below the compound they belong to.

Assays:
CSF1R (FMS) = CSF1R (FMS) (Homo sapiens, UniProt P07333); assay: CSF1R inhibition assay (Z'-LYTE); format: biochemical; conditions: read-out: % inhibition of CSF1R
Method: Compounds were assayed as inhibitors of […] in a manner substantially similar to the method described by Invitrogen Corp (Invitrogen Corporation, 1600 Faraday Avenue, Carlsbad, Calif., CA) using the […] biochemical assay procedure or similar biochemical assay. The 2×CSF1R (FMS)/[…] Peptide Mixture was prepared in 50 mM HEPES pH 7.5, 0.01% BRIJ-35, 10 mM MgCl2, 1 mM EGTA. The final […] Kinase Reaction consisted of 0.2-67.3 ng CSF1R (FMS) and 2 μM […] Peptide in 50 mM HEPES pH 7.5, 0.01% BRIJ-35, 10 mM MgCl2, 1 mM EGTA. After the 1 hour Kinase Reaction incubation, 5 μL of a 1:128 dilution of Development Reagent B was added.

c-KIT [1] = molecular target: T1, c-KIT (Homo sapiens, UniProt P10721); assay: cKIT inhibition assay (electrophoretic mobility shift); format: biochemical; design: purchased Millipore 14-559
Method: The reaction was started by adding the ATP and incubating for 1 hour at room temperature. […] Phosphorylated and unphosphorylated substrate was separated by charge using electrophoretic mobility shift.

CSF1R = CSF1R (Homo sapiens, UniProt P07333); assay: CSF1R mass spectral analysis of tryptic digest; format: binding; conditions: 3 hrs at 10× excess, tryptic digest MALDI
Method: (§1) Iodoacetamide was used as the alkylating agent after compound incubation. For tryptic digests, a 2 μl aliquot (0.09 μg/μl) was diluted with 10 μl of 0.1% TFA prior to micro C18 Zip Tipping directly onto the MALDI target using alpha cyano-4-hydroxy cinnamic acid as the matrix (5 mg/ml in 0.1% TFA:Acetonitrile 50:50).
For tryptic digests, the instrument was set in Reflectron mode with a pulsed extraction setting of 1800. Calibration was done using the Laser Biolabs Pep Mix standard (1046.54, 1296.69, 1672.92, 2093.09, 2465.20). For CID/PSD analysis the peptide was selected using cursors to set ion gate timing and fragmentation occurred at a laser power about 20% higher and He was used as the collision gas for CID. Calibration for fragments was done using the P14R fragmentation calibration for the Curved field Reflectron. Database searching of the tryptic digest of CSF identified it correctly. […] PSD analysis of this peptide signal (1160.50) gave enough fragments to allow for a database MS/MS ion search which verified the sequence of this peptide.

c-KIT [2] = molecular target: T1, c-KIT; assay: c-KIT mass spectral analysis of tryptic digest; format: binding; conditions: 3 hours at 10× excess, tryptic digest MALDI-TOF
Method: (§2) Iodoacetamide was used as the alkylating agent after compound incubation. For tryptic digests a 5 μl aliquot (14 pmols) was diluted with 10 ul of 0.1% TFA prior to micro C18 Zip Tipping directly onto the MALDI target using alpha cyano-4-hydroxy cinnamic acid as the matrix (5 mg/ml in 0.1% TFA:acetonitrile 50:50).
The tryptic digest was analyzed by mass spectrometer (MALDI-TOF).
as §1, with “incubation. […]” for “incubation.”, “digests” for “digests,”, “(3.3 pmols)” for “(0.09 μg/μl)”
For tryptic digests the instrument was set in Reflectron mode with a pulsed extraction setting of 2200. […] Calibration for fragments was done using the P14R fragmentation calibration for the Curved field Reflectron.

Flt3 [3] = molecular target: T2, Flt3 (Homo sapiens, UniProt P36888); assay: Flt3 mass spectral analysis of tryptic digest; format: binding; conditions: 3 hrs at 100× excess, tryptic digest MALDI
T2 sequence (P36888 27-993): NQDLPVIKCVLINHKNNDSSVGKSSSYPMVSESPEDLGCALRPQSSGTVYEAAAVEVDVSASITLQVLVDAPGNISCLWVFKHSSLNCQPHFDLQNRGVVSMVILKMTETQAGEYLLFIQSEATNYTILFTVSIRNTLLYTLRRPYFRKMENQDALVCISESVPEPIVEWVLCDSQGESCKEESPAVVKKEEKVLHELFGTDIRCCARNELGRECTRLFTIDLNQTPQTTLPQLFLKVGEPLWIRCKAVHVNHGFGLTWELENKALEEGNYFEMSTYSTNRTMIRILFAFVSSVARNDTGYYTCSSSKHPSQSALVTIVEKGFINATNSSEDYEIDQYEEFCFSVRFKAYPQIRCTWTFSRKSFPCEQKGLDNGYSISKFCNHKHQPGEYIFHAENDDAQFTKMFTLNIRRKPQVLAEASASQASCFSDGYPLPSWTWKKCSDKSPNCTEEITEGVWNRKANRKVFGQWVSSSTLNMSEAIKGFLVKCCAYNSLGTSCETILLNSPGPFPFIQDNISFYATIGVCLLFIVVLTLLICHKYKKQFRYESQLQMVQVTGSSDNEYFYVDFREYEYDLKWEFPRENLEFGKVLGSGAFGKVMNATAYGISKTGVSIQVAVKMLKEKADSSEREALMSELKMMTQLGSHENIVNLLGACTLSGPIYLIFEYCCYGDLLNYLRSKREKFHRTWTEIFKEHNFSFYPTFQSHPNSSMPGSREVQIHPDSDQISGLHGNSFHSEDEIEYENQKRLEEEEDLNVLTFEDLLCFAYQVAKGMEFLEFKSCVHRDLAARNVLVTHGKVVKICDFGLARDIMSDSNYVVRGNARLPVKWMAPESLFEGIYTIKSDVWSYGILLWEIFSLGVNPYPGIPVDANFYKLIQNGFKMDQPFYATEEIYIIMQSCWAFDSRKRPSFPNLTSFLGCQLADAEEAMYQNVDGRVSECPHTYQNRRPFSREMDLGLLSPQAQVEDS
Method: as §2, with “Flt3 was incubated with Compound 4 for 3 hrs at 100× excess prior to tryptic digestion. Iodoacetamide” for “Iodoacetamide”, “ul” for “μl”, “(7” for “(14”, “TFA:Acetonitrile” for “TFA:acetonitrile”
The mass spec instrument was set in Reflectron mode with a pulsed extraction setting of 1800. Calibration was done using the Laser Biolabs Pep Mix standard (1046.54, 1296.69, 1672.92, 2093.09, 2465.20). For CID/PSD analysis the peptide was selected using cursors to set ion gate timing and fragmentation occurred at a laser power about 20% higher and He was used as the collision gas for CID. Calibration for fragments was done using the P14R fragmentation calibration for the Curved field Reflectron.

Flt3 [4] = molecular target: T2, Flt3; assay: FLT3 biochemical assay (continuous-read kinase assay); design: purchased Invitrogen PV3182; conditions: 500 μM ATP; read-out: IC50 for inhibition of FLT3 phosphorylation
HCV RNA replicon = assay: Replicon assay (luciferase, ET Huh7 cell line); conditions: Hepatitis C virus, Huh-7, 72 h, read-out: EC50 replicon assay
Method: The compounds were assayed to evaluate the antiviral activity and cytotoxicity of compounds using replicon-derived luciferase activity. This assay used the cell line ET (luc-ubi-neo/ET), which is a human Huh7 hepatoma cell line that contains an HCV RNA replicon with a stable luciferase (Luc) reporter and three cell culture-adaptive mutations.
The ET cell line was grown in Dulbecco's modified essential media (DMEM), 10% fetal bovine serum (FBS), 1% penicillin-streptomycin (pen-strep), 1% glutamine, 1% non essential amino acid, 400 μg/mL G418 in a 5% CO2 incubator at 37° C. All cell culture reagents were obtained from Invitrogen(Carlsbad). Cells were trypsinized (1% trypsin:EDTA) and plated out at 5×10^3 cells/well in white 96-well assay plates (Costar) dedicated to cell number (cytotoxicity) or antiviral activity assessments. Compounds were added at six 3-fold concentrations each and the assay was run in DMEM, 5% FBS, 1% pen-strep, 1% glutamine, 1% non essential amino acid. Human interferon alpha-2b (PBL Biolabs, New Brunswick, N.J.) was included in each run as a positive control compound. Cells were processed 72 hr post compound addition when the cells are still subconfluent. Antiviral activity was measured by analyzing replicon-derived luciferase activity using the Steady-Glo Luciferase Assay System (Promega, Madison, Wis.) according to manufacturer's instruction. The number of cells in each well was determined by Cell Titer Blue Assay (Promega).

cKIT in GIST882 cells = molecular target: T3, cKIT in GIST882 cells (Homo sapiens, UniProt P10721, K642E); assay: GIST882 cellular assay with washout (western blot); format: cell-based; conditions: for cKIT autophosphorylation / downstream signaling of ERK: 1 micromolar
T3 construct: endogenous in cells; host or cells: GIST882 cells
Method: GIST882 cells were seeded in a 6 well plate at a density of 8×10^5 cells/well in complete media. The next day cells were treated with 1 uM compound diluted in complete media for 90 minutes. After 90 minutes, the media was removed and cells were washed with compound-free media. Cells were washed every 2 hours and resuspended in fresh compound-free media.

Btk = molecular target: T4, Btk (Homo sapiens, UniProt Q06187); assay: Omnia assay for potency against Btk; conditions: biochemical assay; read-out: IC50 Btk kinase
T4 construct: purchased Invitrogen
Method: The protocol below describes continuous-read kinase assays to measure inherent potency of compounds against active forms of Btk enzyme. The mechanics of the assay platform are best described by the vendor (Invitrogen, Carlsbad, Calif.) on the world wide web at invitrogen.com/site/us/en/home/Products-and-Services/Applications/Drug-Discovery/Target-and-Lead-Identification-and-Validation/KinaseBiology/KB-Misc/Biochemical-Assays/Omnia-Kinase-Assays.html. Briefly, 10× stocks of 5 nM Btk from Invitrogen, 1.13×40 μM ATP (AS001A) and 10 μM (ATP KMapp ˜[…]) Tyr-Sox conjugated peptide substrates (KCZ 1001) were prepared in 1× kinase reaction buffer consisting of 20 mM Tris, pH 7.5, 5 mM MgCl2, 1 mM EGTA, 5 mM β-glycerophosphate, 5% glycerol (10× stock, KBOO2A) and 0.2 mM DTT (DS001A).

[5] = molecular target: HCV NS3/4A 1b protease WT (Hepatitis C virus genotype 1b, UniProt P26662); assay: HCV Protease FRET Assay for wild type NS3/4A 1b enzyme (IC50); format: biochemical; conditions: 30 min pre-incubation
[6] = molecular target: HCV NS3/4A 1b protease D168A (Hepatitis C virus genotype 1b, UniProt P26662, D1194A); assay: HCV Protease FRET Assay for mutated NS3/4A 1b enzyme (IC50); format: biochemical; conditions: 30 min pre-incubation
Description: 279, No. 17, pp 17508-17514.

HCV NS3/4A 1b protease = HCV NS3/4A 1b protease (Hepatitis C virus genotype 1b, UniProt P26662); assay: biochemical
Method: An HCV Protease FRET Assay for HCV NS3/4A 1b Enzyme (IC50_APP) was used. The following protocol was used to generate “apparent” IC50 (IC50_APP) values. […] Protease reactions were immediately started after enzyme addition with the addition of 45 μL of the FRET substrate and monitored for 60-90 minutes at λex485/λem520 in a Synergy4 plate reader from BioTek (Winooski, Vt.).

[7] = 1 uM for 90 minutes, then washed free of compound

T1 sequence (P10721 26-976): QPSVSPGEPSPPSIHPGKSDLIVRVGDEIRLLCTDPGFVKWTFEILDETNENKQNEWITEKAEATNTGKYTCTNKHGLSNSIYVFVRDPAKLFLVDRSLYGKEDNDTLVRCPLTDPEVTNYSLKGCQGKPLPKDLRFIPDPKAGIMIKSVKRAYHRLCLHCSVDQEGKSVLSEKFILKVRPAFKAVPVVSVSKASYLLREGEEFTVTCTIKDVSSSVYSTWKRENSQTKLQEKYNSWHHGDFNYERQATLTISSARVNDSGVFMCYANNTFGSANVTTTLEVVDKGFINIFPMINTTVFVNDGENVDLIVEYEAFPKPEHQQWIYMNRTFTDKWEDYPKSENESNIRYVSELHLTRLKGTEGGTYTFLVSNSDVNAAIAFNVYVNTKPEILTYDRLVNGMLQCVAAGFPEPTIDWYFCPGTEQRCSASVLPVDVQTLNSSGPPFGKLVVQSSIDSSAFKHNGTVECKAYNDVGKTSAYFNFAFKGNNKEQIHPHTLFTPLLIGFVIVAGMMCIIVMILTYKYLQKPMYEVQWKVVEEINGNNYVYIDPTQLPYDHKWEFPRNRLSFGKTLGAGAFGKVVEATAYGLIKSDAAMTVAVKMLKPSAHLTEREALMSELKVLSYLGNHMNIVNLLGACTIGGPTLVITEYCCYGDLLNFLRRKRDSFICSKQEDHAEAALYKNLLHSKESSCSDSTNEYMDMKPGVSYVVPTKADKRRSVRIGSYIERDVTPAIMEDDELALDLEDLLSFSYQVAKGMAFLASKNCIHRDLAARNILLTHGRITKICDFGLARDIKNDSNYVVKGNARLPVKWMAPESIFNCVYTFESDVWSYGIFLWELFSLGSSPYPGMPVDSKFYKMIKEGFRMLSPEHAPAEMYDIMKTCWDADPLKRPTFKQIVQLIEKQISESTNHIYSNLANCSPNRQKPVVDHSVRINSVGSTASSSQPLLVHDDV
T3 sequence (P10721 26-976 K642E): as the sequence (P10721 26-976) above, with K617E counted along it
Sequence of HCV NS3/4A 1b protease D168A (P26662 1027-1208 D1194A): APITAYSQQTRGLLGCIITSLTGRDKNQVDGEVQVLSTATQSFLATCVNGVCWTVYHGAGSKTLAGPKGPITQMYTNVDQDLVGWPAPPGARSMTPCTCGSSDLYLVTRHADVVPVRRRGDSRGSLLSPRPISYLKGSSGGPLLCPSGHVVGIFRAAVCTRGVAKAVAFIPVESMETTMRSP
Sequence of HCV NS3/4A 1b protease D168A (P26662 1658-1711 partner limits assumed): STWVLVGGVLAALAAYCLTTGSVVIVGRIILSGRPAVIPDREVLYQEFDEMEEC
Sequence of CSF1R (FMS) (P07333 20-972): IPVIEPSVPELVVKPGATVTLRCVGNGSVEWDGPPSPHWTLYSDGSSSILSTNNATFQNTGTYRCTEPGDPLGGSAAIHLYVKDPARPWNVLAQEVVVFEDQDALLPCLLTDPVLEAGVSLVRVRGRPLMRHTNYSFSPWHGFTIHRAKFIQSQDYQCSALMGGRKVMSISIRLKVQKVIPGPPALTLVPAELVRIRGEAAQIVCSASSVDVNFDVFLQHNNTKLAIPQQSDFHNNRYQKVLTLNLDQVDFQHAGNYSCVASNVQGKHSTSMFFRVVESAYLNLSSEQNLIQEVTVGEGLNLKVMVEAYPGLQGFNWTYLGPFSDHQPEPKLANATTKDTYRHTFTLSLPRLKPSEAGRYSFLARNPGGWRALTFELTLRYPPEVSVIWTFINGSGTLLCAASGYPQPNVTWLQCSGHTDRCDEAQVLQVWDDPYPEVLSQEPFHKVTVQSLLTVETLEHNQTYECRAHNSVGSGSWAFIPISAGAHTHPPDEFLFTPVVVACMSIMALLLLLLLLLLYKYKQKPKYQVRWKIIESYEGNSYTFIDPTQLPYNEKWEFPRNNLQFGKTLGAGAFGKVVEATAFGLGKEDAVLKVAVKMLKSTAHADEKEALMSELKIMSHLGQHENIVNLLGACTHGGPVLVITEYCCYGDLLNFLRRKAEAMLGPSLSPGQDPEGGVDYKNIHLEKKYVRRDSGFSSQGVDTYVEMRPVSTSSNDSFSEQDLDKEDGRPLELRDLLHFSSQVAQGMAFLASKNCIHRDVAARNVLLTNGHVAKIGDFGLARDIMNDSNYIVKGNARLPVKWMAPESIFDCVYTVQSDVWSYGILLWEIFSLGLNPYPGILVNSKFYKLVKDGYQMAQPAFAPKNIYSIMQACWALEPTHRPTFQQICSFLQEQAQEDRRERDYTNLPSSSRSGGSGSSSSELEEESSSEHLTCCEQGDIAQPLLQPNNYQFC
Sequence of HCV NS3/4A 1b protease WT (P26662 1658-1711): as the sequence (P26662 1658-1711 partner limits assumed) above
Sequence of HCV NS3/4A 1b protease WT (P26662 1027-1208): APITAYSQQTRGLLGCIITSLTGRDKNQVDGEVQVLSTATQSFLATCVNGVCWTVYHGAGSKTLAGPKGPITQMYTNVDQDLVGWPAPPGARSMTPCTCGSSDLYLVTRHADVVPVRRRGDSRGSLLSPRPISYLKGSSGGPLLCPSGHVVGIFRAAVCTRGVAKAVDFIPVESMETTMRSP
Sequence of CSF1R (P07333 20-972): as the sequence (P07333 20-972) above
Sequence of HCV NS3/4A 1b protease (P26662 1027-1208): as the sequence (P26662 1027-1208) above
Sequence of HCV NS3/4A 1b protease (P26662 1658-1711): as the sequence (P26662 1658-1711 partner limits assumed) above
T4 sequence (Q06187 whole entry): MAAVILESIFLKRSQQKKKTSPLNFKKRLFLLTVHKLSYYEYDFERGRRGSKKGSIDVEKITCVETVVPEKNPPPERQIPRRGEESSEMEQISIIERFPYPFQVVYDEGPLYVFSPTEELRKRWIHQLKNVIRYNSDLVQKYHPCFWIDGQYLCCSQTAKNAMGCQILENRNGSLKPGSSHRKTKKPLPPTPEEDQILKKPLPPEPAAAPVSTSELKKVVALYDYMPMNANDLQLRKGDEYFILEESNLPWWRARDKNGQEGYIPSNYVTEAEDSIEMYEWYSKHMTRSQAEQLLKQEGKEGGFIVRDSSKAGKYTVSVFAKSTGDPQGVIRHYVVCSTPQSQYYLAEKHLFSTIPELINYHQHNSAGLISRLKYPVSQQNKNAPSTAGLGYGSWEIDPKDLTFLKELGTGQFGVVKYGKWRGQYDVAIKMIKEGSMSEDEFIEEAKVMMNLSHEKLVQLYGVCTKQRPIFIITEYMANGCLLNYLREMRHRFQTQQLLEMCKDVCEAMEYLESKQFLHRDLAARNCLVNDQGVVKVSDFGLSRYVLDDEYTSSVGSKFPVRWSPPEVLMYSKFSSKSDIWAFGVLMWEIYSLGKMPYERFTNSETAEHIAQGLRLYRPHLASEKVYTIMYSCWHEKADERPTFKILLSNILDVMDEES

- inhibition at 10 µM (CSF1R (FMS); 10 μM compound): 72%
- inhibition at 1 µM (c-KIT [1]; read-out: % Inhibition of c-KIT): 82%
Compound: C=CC(=O)Nc1ccc(C(=O)Nc2ccc(C)c(Nc3nccc(-c4cccnc4)n3)c2)cc1 [Compound 1, 4-acrylamido-N-(4-methyl-3-(4-(pyridin-3-yl)pyrimidin-2-ylamino)phenyl)benzamide]

Compound: C=CC(=O)Nc1ccc(C(=O)Nc2ccc(C)c(Nc3nccc(-c4cccnc4)n3)c2)cc1C(F)(F)F [Compound 2, 4-Acrylamido-N-(4-methyl-3-(4-pyridin-3-yl)pyrimidin-2-ylamino)phenyl-3-(trifluoromethyl)benzamide]
- inhibition at 10 µM (CSF1R (FMS)): 89%
- covalent modification of CSF1R (modified peptide) (CSF1R): NCIHR

- covalent modification of c-KIT (site or peptide) (c-KIT [2]): Cys788 (major) and: Cys808 (minor)
Compound: Cc1ccc(C(=O)Nc2ccc(NC(=O)CCl)c(C(F)(F)F)c2)cc1Nc1nccc(-c2cccnc2)n1 [Compound 3]

Compound: C=CC(=O)Nc1ccc(Sc2nc(Nc3cc(C)n[nH]3)cc(N3CCN(C)CC3)n2)cc1 [Compound 4, N-(4-(4-(3-Methyl-1H-pyrazol-5-ylamino)-6-(4-methylpiperiazin-1-yl)pyrimidin-2ylthio)phenyl)acrylamide]
- covalent modification of Flt3 (modified peptide) (Flt3 [3]): ICDFGLAR with Compound 4 attached
- IC50 (Flt3 [4]): 2.2 nM

Compound: C=CC(=O)NC[C@H](NC(=O)OC(C)(C)C)C(=O)N1C[C@H](Oc2cc(-c3ccccc3)nc3cc(OC)ccc23)C[C@H]1C(=O)N[C@]1(C(=O)NS(=O)(=O)c2ccccc2)C[C@H]1C=C [Compound 6, N-[(1,1-dimethylethoxy)carbonyl]-3-[(2-propenoyl)amino]-L-alanyl-(4R)-4-[(7-methoxy-2-phenyl-4-quinolinyl)oxy]-L-prolyl-1-amino-2-ethenyl-N-(phenylsulfonyl)-(1R,2S)-cyclopropanecarboxamide]
- EC50 (HCV RNA replicon): 174 nM

- covalent modification of c-KIT (site or peptide) (c-KIT [2]): NCIHR
- persistence of inhibition after washout (cKIT in GIST882 cells; [7]): at least 8 hours
- cKIT autophosphorylation (cKIT in GIST882 cells): inhibited
- downstream signaling of ERK (cKIT in GIST882 cells): inhibited
- IC50 (c-KIT [1]; inhibition of cKIT phosphorylation): 31 nM
Compound: C=CC(=O)Nc1ccc(NC(=O)Nc2ccc(Oc3ccnc(C(=O)NC)c3)cc2)cc1C(F)(F)F [Compound 7, 4-(4-(3-(4-Acrylamido-3-(trifluoromethyl)phenyl)ureido)phenoxy)-N-methylpicolinamide]

- IC50 (Btk): 8600 nM
Compound: CCC(=O)Nc1cccc(Nc2cc(Nc3ccc(Oc4ccccc4)cc3)ncn2)c1 [Compound 9]

Compound: C=C[C@@H]1C[C@]1(NC(=O)[C@@H]1C[C@@H](Oc2cc(-c3ccccc3)nc3cc(OC)ccc23)CN1C(=O)CNC(=O)CC)C(=O)NS(=O)(=O)c1ccccc1 [Compound 11, reference compound]
- IC50 [5]: 165 nM
- IC50 [6]: > 3000 nM
- EC50 (HCV RNA replicon): > 3000 nM

Compound: C=CC(=O)NCC(=O)N1C[C@H](Oc2cc(-c3ccccc3)nc3cc(OC)ccc23)C[C@H]1C(=O)N[C@]1(C(=O)NS(=O)(=O)c2ccccc2)C[C@H]1C=C [Compound 12, (2S,4R)-1-(2-acrylamidoacetyl)-4-(7-methoxy-2-phenylquinolin-4-yloxy)-N-((1R,2S)-1-(phenylsulfonylcarbamoyl)-2-vinylcyclopropyl)pyrrolidine-2-carboxamide]
- IC50 [5]: 0.3 nM
- IC50 [6]: 17 nM
- EC50 (HCV RNA replicon): 204 nM

Compound: C=CC1C[C@]1(NC(=O)[C@@H]1C[C@@H](Oc2cc(-c3ccccc3)nc3cc(OC)ccc23)CN1C(=O)C(NC(=O)OC(C)(C)C)C(C)C)C(=O)NS(=O)(=O)c1ccccc1 (stereo partly drawn) [Compound V-1, reference compound]
- IC50 (HCV NS3/4A 1b protease): 0.4 nM

- inhibitory activity of ckit and downstream signaling after washout (cKIT in GIST882 cells; [7]): overcome
- cKIT autophosphorylation (cKIT in GIST882 cells): inhibited
- downstream signaling of ERK (cKIT in GIST882 cells): inhibited
Compound: CNC(=O)c1cc(Oc2ccc(NC(=O)Nc3ccc(Cl)c(C(F)(F)F)c3)cc2)ccn1 [Sorafenib, sorafenib, reference compound]
